Experimental data reported in patent publication US12466840B2, “Small molecule inhibitors of KRAS proteins” (Merck Sharp & Dohme LLC, priority 2023, dated 2025).

Assays:
Type in all cases: biochemical
[1] = molecular target: KRAS G12C (Homo sapiens (Human), UniProt P01116, C118S/C51S/C80L/G12C); test: SOS-catalyzed nucleotide exchange assay (GNE), KRAS G12C; conditions: TR-FRET, 60 min preincubation; protein with C51S/C80L/C118S
Excerpt: (§1) Procedure for SOS-Catalyzed Nucleotide Exchange Assay for KRAS-WT, G12C/D/V/A/R/S, G13D, Q61H, HRAS-WT, and NRAS-WT
(§2) Recombinant KRAS-G12C protein used in this assay has an additional triple mutation (C51S/C80L/C118S). Whereas KRAS-WT, G12D/V/A/S/R, G13D, Q61H, HRAS and NRAS are in context of their WT protein sequence background. Specifically, the SOS-catalyzed nucleotide exchange assay utilizes a preformed TR-FRET complex containing a specific biotinylated RAS protein (KRAS-WT, G12C/V/D/A/S/R, G13D, Q61H, HRAS-WT, NRAS-WT; described above) with Bodipy-GDP, and Terbium-streptavidin. Compounds are preincubated with this complex for 60 minutes. Subsequently, recombinant human SOS protein and unlabeled GTP are added to initiate the exchange reaction. Small molecule inhibitors stabilize the Bodipy-GDP complex whereas the untreated protein rapidly exchanges Bodipy-GDP for unlabeled GTP resulting in reduced TR-FRET signal.
(§3) To assemble the preformed TR-FRET complexes, each biotinylated RAS protein is diluted to 2 μM in an EDTA Buffer (20 mM HEPES pH 7.5, 50 mM sodium chloride, 10 mM EDTA, and 0.01% Tween) and incubated at room temperature for one hour. This mixture is then further diluted to 90 nM in an Assay Buffer (20 mM HEPES pH 7.5, 150 mM sodium chloride, 10 mM magnesium chloride, and 0.005% Tween) containing 15 nM of Terbium-Streptavidin (Invitrogen, catalog #PV3577) and 900 nM of Bodipy-GDP (Invitrogen, catalog #G22360) and incubated at room temperature for six hours. It should be noted that this preformed TR-FRET complex for each of the RAS protein were made ahead of time, aliquoted and stored at −80° C. until the day of the experiment.
(§4) Each test compound (10 mM stock in DMSO) is diluted in DMSO to make a final-10-point, 3-fold dilution and is acoustically dispensed into a 384-well assay plate (Corning, catalog #3820) using an Echo 550 (Labcyte). Each well of the assay plate receives 3 μL of a specific 3×RAS preformed TR-FRET complex and 3 μL of Assay Buffer and is incubated at room temperature for 60 minutes (preincubation time). Each well then receives 3 μL of 3× recombinant human SOS protein and GTP (Sigma, G8877) in Assay Buffer and is incubated at room temperature for 30 minutes (G13D), 60 minutes (KRAS WT/G12C/D, H/NRAS) or 90 minutes for G12A/R/S/V and Q61H. The final reaction in each well of 9 μL consists of 3 mM GTP, specific Ras and SOS proteins in the following concentrations: KRAS-G12C/SOS=3 nM/40 nM, KRAS-WT and G12D/SOS=1 nM/40 nM, KRAS-G12V/SOS=1.25 nM/160 nM, KRAS-G12A/S/SOS=1 nM/160 nM, KRAS-G12R/SOS=1 nM/320 nM, KRAS-Q61H/SOS=1 nM/320 nM, KRAS-G13D/SOS=1.25 nM/[…], HRAS-WT and NRAS-WT=1.25 nM/40 nM.
(§5) The time-resolved fluorescence resonance energy transfer (TR-FRET) signal is measured on an Envision (PerkinElmer) plate reader: Excitation filter=340 nm; emission1=495 nm; emission2=520 nm; dichroic mirror=D400/D505; delay time=[…]. The signal of each well is determined as the ratio of the emission at 520 nm to that at 495 nm. Percent effect of each well is determined after normalization to control wells containing DMSO (no effect) or a saturating concentration of inhibitor (max effect). The apparent effect as a function of compound concentration is fit to a four-parameter logistic equation.

[2] = molecular target: KRAS G12D (Homo sapiens (Human), UniProt P01116, G12D); test: SOS-catalyzed nucleotide exchange assay (GNE), KRAS G12D; conditions: TR-FRET, 60 min preincubation
Sequence of KRAS G12D (P01116 other isoform, or with tags, fused parts or gaps G12D (already in the parent)): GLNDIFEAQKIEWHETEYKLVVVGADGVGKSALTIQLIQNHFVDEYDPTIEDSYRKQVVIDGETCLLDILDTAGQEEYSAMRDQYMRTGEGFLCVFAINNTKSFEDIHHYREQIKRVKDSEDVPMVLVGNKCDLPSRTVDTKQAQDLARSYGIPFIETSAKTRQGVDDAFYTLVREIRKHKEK
Excerpt: as §1, §2, §3, §4, §5

[3] = molecular target: KRAS G12R (Homo sapiens (Human), UniProt P01116, G12R); test: SOS-catalyzed nucleotide exchange assay (GNE), KRAS G12R; conditions: TR-FRET, 60 min preincubation
Sequence of KRAS G12R (P01116 other isoform, or with tags, fused parts or gaps G12R (already in the parent)): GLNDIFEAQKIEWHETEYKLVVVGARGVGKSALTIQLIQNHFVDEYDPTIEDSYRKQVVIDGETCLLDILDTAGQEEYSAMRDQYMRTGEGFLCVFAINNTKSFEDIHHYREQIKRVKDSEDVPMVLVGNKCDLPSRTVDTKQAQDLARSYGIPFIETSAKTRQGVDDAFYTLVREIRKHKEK
Excerpt: as §1, §2, §3, §4, §5

[4] = molecular target: KRAS G12A (Homo sapiens (Human), UniProt P01116, G12A); test: SOS-catalyzed nucleotide exchange assay (GNE), KRAS G12A; conditions: TR-FRET, 60 min preincubation
Sequence of KRAS G12A (P01116 other isoform, or with tags, fused parts or gaps G12A (already in the parent)): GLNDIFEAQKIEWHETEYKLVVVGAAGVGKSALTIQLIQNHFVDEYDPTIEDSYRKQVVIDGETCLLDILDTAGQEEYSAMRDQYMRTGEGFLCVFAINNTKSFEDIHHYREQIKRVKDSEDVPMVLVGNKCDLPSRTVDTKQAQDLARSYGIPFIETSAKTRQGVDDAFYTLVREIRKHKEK
Excerpt: as §1, §2, §3, §4, §5

[5] = molecular target: KRAS G12V (Homo sapiens (Human), UniProt P01116, G12V); test: SOS-catalyzed nucleotide exchange assay (GNE), KRAS G12V; conditions: TR-FRET, 60 min preincubation
Sequence of KRAS G12V (P01116 other isoform, or with tags, fused parts or gaps G12V (already in the parent)): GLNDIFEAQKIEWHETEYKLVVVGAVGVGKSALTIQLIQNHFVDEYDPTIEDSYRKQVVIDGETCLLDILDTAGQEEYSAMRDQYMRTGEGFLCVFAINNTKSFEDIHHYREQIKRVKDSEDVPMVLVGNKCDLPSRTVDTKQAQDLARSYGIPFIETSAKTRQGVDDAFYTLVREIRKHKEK
Excerpt: as §1, §2, §3, §4, §5

Sequence of KRAS G12C (P01116 other isoform, or with tags, fused parts or gaps, stated change not applied): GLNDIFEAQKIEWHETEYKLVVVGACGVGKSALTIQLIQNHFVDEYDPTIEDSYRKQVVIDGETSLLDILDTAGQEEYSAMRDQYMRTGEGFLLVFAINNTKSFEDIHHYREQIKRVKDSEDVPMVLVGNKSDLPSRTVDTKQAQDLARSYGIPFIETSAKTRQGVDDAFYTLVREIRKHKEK

Row | IC50 [2] | IC50 [5] | Compound | IC50 [1] | IC50 [3] | IC50 [4]
1 | < 0.69 nM | 0.83 nM | CCc1c(F)ccc2cc3[nH]ncc3c(-c3nc4c5c(nc(OC[C@@]67CCCN6C/C(=C\F)C7)nc5c3F)N3CCCOC[C@H]3CO4)c12 [Ex-4, (8aS)-5-(5-ethyl-6-fluoro-1H-benzo[f]indazol-4-yl)-4-fluoro-2-(((S,Z)-2-(fluoromethylene)tetrahydro-1H-pyrrolizin-7a(5H)-yl)methoxy)-8a,9,12,13-tetrahydro-8H,11H-7,10-dioxa-1,3,6,13a-tetraazanaphtho[1,8-ab]heptalene] | 2.9 nM | < 0.69 nM | < 0.69 nM
2 | < 0.69 nM | 0.98 nM | F/C=C1\CN2CCC[C@@]2(COc2nc3c4c(nc(-c5c(C6(F)CC6)c(Cl)cc6[nH]ncc56)c(F)c4n2)OC[C@@H]2COCCCN32)C1 [Ex-5, (8aS)-5-(6-chloro-5-(1-fluorocyclopropyl)-1H-indazol-4-yl)-4-fluoro-2-(((S,Z)-2-(fluoromethylene)tetrahydro-1H-pyrrolizin-7a(5H)-yl)methoxy)-8a,9,12,13-tetrahydro-8H,11H-7,10-dioxa-1,3,6,13a-tetraazanaphtho[1,8-ab]heptalene] | 3.3 nM | 1.3 nM | 0.83 nM
3 | 1.3 nM | 1.5 nM | CCc1c(F)ccc2cc3[nH]nc(C)c3c(-c3nc4c5c(nc(OC[C@@]67CCCN6C[C@H](F)C7)nc5c3F)N3CCCOC[C@H]3CO4)c12 [Ex-6, (8aS)-5-(5-ethyl-6-fluoro-3-methyl-1H-benzo[f]indazol-4-yl)-4-fluoro-2-(((2R,7aS)-2-fluorotetrahydro-1H-pyrrolizin-7a(5H)-yl)methoxy)-8a,9,12,13-tetrahydro-8H,11H-7,10-dioxa-1,3,6,13a-tetraazanaphtho[1,8-ab]heptalene] | 6.5 nM | 1.2 nM | 1 nM

Continued, molecule first:

Row | Compound | IC50 [2] | IC50 [5] | IC50 [1] | IC50 [3] | IC50 [4]
4 | F/C=C1/CN2CCC[C@@]2(COc2nc3c4c(nc(-c5c(C6CC6)c(Cl)cc6[nH]ncc56)c(F)c4n2)OC[C@@H]2COCCCN32)C1 [Ex-1, (8aS)-5-(6-chloro-5-cyclopropyl-1H-indazol-4-yl)-4-fluoro-2-(((S,Z)-2-(fluoromethylene)tetrahydro-1H-pyrrolizin-7a(5H)-yl)methoxy)-8a,9,12,13-tetrahydro-8H,11H-7,10-dioxa-1,3,6,13a-tetraazanaphtho[1,8-ab]heptalene] | 0.67 nM | 1.3 nM | 6.9 nM | < 0.69 nM | < 0.69 nM
5 | CCc1c(F)ccc2cc3[nH]ncc3c(-c3nc4c5c(nc(OC[C@@]67CCCN6C[C@H](F)C7)nc5c3F)N3CCCOC[C@H]3CO4)c12 [Ex-2, (8aS)-5-(5-ethyl-6-fluoro-1H-benzo[f]indazol-4-yl)-4-fluoro-2-(((2R,7aS)-2-fluorotetrahydro-1H-pyrrolizin-7a(5H)-yl)methoxy)-8a,9,12,13-tetrahydro-8H,11H-7,10-dioxa-1,3,6,13a-tetraazanaphtho[1,8-ab]heptalene] | 0.65 nM | 1.3 nM | 3.2 nM | < 0.69 nM | < 0.69 nM
6 | Fc1c(-c2c(C3CC3)c(Cl)cc3[nH]ncc23)nc2c3c(nc(OC[C@@]45CCCN4C[C@H](F)C5)nc13)N1CCCOC[C@H]1CO2 [Ex-3, (8aS)-5-(6-chloro-5-cyclopropyl-1H-indazol-4-yl)-4-fluoro-2-(((2R,7aS)-2-fluorotetrahydro-1H-pyrrolizin-7a(5H)-yl)methoxy)-8a,9,12,13-tetrahydro-8H,11H-7,10-dioxa-1,3,6,13a-tetraazanaphtho[1,8-ab]heptalene] | 1.3 nM | 3 nM |  |  | 
7 | CCc1c(F)ccc2cc3[nH]nc(C)c3c(-c3nc4c5c(nc(OC[C@@]67CCCN6C/C(=C\F)C7)nc5c3F)N3CCCOC[C@H]3CO4)c12 [Ex-7, (8aS)-5-(5-ethyl-6-fluoro-3-methyl-1H-benzo[f]indazol-4-yl)-4-fluoro-2-(((S,Z)-2-(fluoromethylene)tetrahydro-1H-pyrrolizin-7a(5H)-yl)methoxy)-8a,9,12,13-tetrahydro-8H,11H-7,10-dioxa-1,3,6,13a-tetraazanaphtho[1,8-ab]heptalene] | 1.4 nM | 2.8 nM | 11 nM | 1.3 nM | 1.3 nM
